Experimental data: patent publication EP2090576A1, “6-halo-pyrazolo[1,5-a]pyridines, a process for their preparation and their use as metabotropic glutamate receptor (mGluR) modulators” (Merz Pharma GmbH & Co. KGaA, priority 2008, dated 2009)
pIC50: −log10 of the molar value.

Biological target: T1, human metabotropic glutamate receptor mGluR5 (Homo sapiens, UniProt P41594)
T1 construct: expressed in transfected cells; host or cells: CHO-K1 cells (IPTG-inducible expression)
Assay: Cytosolic Calcium studies with stably transfected cells (FLIPR)
Assay type: cell-based
Conditions: CHO-K1 cells with inducible human mGluR5; test compound added 5 minutes before L-quisqualic acid (concentration giving ~80% of the maximal signal); read-out: mGluR5_FLIPR_h_ CHO_NAM IC50
Description: Cytosolic Calcium studies with stably transfected cells:
Chinese hamster ovary cells (CHO-K1 cells), stably transfected for inducible expression of a human metabotropic glutamate receptor mGluR5, are seeded into black clear bottom 96 well plates at a density of 35.000 cells per well. The standard growth medium used (Dulbecco's modified Eagle Medium, DMEM plus L-proline) contains the appropriate inducer isopropyl-β-D-thiogalactopyranosid (IPTG) to achieve optimal receptor expression. One day after seeding the growth medium is exchanged for reconstituted Ca-Kit (Molecular Devices, USA) and incubated for one hour. Ca-Kit is reconstituted in an assay buffer containing 20 mM HEPES pH 7.4, glutamic-pyruvate transaminase, pyridoxal phosphate and sodium pyruvate in Hank's balanced salt solution (HBBS). Agonistic compounds to the receptor elicit increases in cytosolic calcium which can be measured as increases in fluorescence signals by use of a fluorescence imaging plate reader (Molecular Devices).
(§1) The fluorescence signal increase after addition of agonist reflects the increase of cytosolic calcium. Inconsistencies in the amount of cells per well are normalised by using the spatial uniformity correction of the FLIPR software. The mean of replicated temporal data (n=3-5) is calculated and used for graphical representation. For the evaluation of the pharmacology, the calcium changes in response to different concentrations of agonist or antagonist are determined using a maximum minus minimum (MaxMin) calculation.
(§2) All responses (RFU-values) are determined as percentage of control (= maximum response). EC50 and IC50 are calculated according the logistic equation using GraFit 5.0 (Erithacus Software, GB) or Prism 4.0 (GraphPad Software, USA).

T1 sequence (P41594 21-1212): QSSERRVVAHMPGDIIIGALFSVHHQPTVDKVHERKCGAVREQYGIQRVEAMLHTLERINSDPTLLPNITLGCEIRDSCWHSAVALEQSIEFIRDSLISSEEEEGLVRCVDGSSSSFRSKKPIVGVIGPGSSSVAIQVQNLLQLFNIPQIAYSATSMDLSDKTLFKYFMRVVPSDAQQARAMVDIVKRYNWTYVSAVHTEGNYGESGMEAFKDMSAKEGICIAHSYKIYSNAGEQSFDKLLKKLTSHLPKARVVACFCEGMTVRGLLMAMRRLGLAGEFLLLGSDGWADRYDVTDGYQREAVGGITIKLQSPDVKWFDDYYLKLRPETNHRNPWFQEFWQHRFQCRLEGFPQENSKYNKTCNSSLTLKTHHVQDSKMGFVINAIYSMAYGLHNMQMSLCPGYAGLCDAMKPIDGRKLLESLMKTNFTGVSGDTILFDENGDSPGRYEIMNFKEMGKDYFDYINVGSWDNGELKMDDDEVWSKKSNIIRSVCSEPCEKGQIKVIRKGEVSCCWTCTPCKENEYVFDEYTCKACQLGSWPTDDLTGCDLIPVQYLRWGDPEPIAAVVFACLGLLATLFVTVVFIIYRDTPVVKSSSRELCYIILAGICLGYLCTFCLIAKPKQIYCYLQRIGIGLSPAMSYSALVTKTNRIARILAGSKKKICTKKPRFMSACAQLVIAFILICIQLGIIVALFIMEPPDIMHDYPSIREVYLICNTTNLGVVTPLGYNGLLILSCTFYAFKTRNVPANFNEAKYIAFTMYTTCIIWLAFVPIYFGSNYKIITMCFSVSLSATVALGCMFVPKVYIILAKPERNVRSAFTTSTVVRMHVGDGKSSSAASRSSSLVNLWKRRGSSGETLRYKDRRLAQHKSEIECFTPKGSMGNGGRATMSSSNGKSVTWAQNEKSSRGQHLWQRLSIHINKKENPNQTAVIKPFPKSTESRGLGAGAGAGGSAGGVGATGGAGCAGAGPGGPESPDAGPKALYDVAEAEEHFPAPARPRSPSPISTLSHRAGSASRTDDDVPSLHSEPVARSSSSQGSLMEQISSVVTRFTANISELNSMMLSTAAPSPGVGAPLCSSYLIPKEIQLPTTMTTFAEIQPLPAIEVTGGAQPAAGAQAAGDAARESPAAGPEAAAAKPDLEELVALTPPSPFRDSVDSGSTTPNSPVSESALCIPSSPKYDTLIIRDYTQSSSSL

Row | SMILES | pIC50
1 | CC1c2ccccc2CCN1C(=O)c1cc2ccc(Br)cn2n1 (stereo not shown) [drawing 1009, (6-Bromopyrazolo[1,5-a]pyridin-2-yl)-(1-methyl-3,4-dihydro-1H-isoquinolin-2-yl)-methanone] | 6.66
2 | CC1c2ccccc2CCN1C(=O)c1cc2ccc(Cl)cn2n1 (stereo not shown) [drawing 1010, (6-Chloro-pyrazolo[1,5-a]pyridin-2-yl)-(1-methyl-3,4-dihydro-1H-isoquinolin-2-yl)-methanone] | 6.99
3 | O=C(c1cc2ccc(Br)cn2n1)N1CCc2ncc(Br)cc2C1 [drawing 1011, (3-Bromo-7,8-dihydro-5H-[1,6]naphthyridin-6-yl)-(6-bromo-pyrazolo[1,5-a]pyridin-2-yl)-methanone] | 6.51
4 | CC1c2ccsc2CCN1C(=O)c1cc2ccc(Br)cn2n1 (stereo not shown) [drawing 1012, (6-Bromo-pyrazolo[1,5-a]pyridin-2-yl)-(4-methyl-6,7-dihydro-4H-thieno[3,2-c]pyridin-5-yl)-methanone] | 6.78
5 | Cc1ccc2n1CCN(C(=O)c1cc3ccc(Br)cn3n1)C2C (stereo not shown) [drawing 1013, 6-bromo-2-[(1,6-dimethyl-3,4-dihydropyrrolo[1,2-a]pyrazin-2(1H)-yl)carbonyl]pyrazol o[1,5-a]pyridine] | 6.75
6 | CC1c2ccoc2CCN1C(=O)c1cc2ccc(Br)cn2n1 (stereo not shown) [drawing 1014, (6-Bromo-pyrazolo[1,5-a]pyridin-2-yl)-(4-methyl-6,7-dihydro-4H-furo[3,2-c]pyridin-5-yl)-methanone] | 6.78
7 | CN1c2ccccc2CCN1C(=O)c1cc2ccc(Br)cn2n1 [drawing 1015, (6-Bromo-pyrazolo[1,5-a]pyridin-2-yl)-(1-methyl-3,4-dihydro-1H-cinnolin-2-yl)-methanone] | 6.39
8 | C[C@@H]1c2ccccc2CCN1C(=O)c1cc2c(Cl)cc(Cl)cn2n1 [drawing 1016, (4,6-Dichloro-pyrazolo[1,5-a]pyridin-2-yl)-((R)-1-methyl-3,4-dihydro-1H-isoquinolin-2-yl)-methanone] | 6.94

Biological target: T2, mGluR5 receptors (Rattus norvegicus, UniProt P31424)
T2 construct: Primary astrocyte cultures are prepared from cortices of newborn rats; endogenous in cells; host or cells: primary cortical astrocytes from Sprague-Dawley rat pups (2-4 d old), 14-15 DIV
T2 sequence (P31424 21-1203): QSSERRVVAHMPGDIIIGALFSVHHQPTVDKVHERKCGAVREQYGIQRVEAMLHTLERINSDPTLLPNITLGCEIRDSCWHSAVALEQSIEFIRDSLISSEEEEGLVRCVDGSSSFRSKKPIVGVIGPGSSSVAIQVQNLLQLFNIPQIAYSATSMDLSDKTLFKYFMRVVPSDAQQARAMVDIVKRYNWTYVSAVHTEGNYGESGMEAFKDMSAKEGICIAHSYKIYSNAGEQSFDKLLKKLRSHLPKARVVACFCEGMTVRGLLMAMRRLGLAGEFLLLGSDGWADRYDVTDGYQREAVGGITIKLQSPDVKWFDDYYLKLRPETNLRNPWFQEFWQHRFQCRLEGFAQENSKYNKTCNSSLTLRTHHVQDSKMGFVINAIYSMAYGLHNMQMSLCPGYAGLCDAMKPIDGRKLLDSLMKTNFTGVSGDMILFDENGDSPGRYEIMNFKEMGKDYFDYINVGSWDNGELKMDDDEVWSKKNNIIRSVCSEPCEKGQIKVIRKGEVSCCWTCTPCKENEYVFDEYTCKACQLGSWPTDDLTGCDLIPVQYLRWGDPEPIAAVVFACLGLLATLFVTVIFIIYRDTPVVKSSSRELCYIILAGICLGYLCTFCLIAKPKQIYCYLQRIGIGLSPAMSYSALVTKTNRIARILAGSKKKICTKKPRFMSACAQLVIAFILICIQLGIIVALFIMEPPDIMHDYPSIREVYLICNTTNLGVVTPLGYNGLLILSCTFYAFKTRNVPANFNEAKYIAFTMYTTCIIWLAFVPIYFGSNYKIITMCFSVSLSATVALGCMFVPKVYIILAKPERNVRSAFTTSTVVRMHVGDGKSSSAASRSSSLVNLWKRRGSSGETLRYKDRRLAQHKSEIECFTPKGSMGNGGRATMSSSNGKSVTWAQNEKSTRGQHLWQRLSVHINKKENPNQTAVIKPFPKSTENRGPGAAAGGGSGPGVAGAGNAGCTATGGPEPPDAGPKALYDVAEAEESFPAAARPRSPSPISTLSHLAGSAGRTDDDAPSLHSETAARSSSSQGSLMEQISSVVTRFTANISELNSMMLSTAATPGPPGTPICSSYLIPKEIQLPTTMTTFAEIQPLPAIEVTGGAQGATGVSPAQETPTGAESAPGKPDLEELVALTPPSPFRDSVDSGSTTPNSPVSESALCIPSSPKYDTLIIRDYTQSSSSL
Assay: Cytosolic Calcium studies with astrocytes (astrocyte culture test, FLIPR)
Assay type: cell-based
Conditions: primary rat cortical astrocytes, 14-15 DIV; 10 minutes pre-incubation, L-quisqualate 100 nM; read-out: mGluR5_FLIPRr_rpA IC50
Description: Primary astrocyte cultures are prepared from cortices of newborn rats as described by Booher and Sensenbrenner (1972, Neurobiology 2(3):97-105). Briefly, Sprague-Dawley rat pups (2 - 4 d old) are decapitated and neocortices are dissected, disintegrated with a nylon filter (pore size 80 µm) and carefully triturated. The cell suspension is plated on poly-D-lysine pre-coated flasks (Costar, Netherlands) and cultivated in Dulbecco's Modified Eagle's Medium (DMEM, Invitrogen, Germany) supplemented with 10% foetal calf serum (FCS, Sigma, Germany), 4 mM glutamine and 50 µg/ml gentamycin (both Biochrom, Germany) at 37°C in a humidified atmosphere of 5% CO2 / 95% air for 7 d with exchanging the medium at day 2 and 6.
After 7 days in vitro (DIV), cells are shaken overnight at 250 rpm to remove oligodendrocytes and microglia. The next day, astrocytes are rinsed twice with CMF-PBS (calcium- and magnesium-free phosphate buffered saline, Biochrom, Germany), trypsinized and subplated on poly-D-lysine pre-coated 96-well plates (Greiner, Germany) at a density of 40,000 cells/well. 24 h after establishing the secondary culture the astrocytes are rinsed with PBS^++ (phosphate buffered saline, Biochrom, Germany) and fed with astrocyte-defined medium (ADM) consisting of DMEM containing 1x G5-supplement (Invitrogen, Germany), 0.5 µg/ml heparan sulfate, and 1.5 µg/ml fibronectin (both Sigma, Germany) (Miller et al., (1993) Brain Res. 618(1):175-8). 3 d later the medium is exchanged and the cells incubated for another 2-3 d, so that at the time of experiments astrocytes are 14-15 DIV.
Cytosolic Calcium studies with astrocytes:
The increase of cytosolic calcium after stimulation with the mGluR5 agonist L-quisqualate is measured using a fluorometric imaging plate reader (FLIPR) and the Ca-Kit (both Molecular Devices). Prior to addition of agonist or antagonist the medium is aspirated and cells are loaded for 2 h at RT with 150 µl of loading buffer consisting of Ca-sensitive dye reconstituted in sodium chloride (123 mM), potassium chloride (5.4 mM), magnesium chloride (0.8 mM), calcium chloride (1.8 mM), D-glucose (15 mM), and HEPES (20 mM), pH 7.3. Subsequently, plates are transferred to FLIPR to detect calcium increase with the addition of L-quisqualate (100 nM) measured as relative fluorescence units (RFU). If antagonists are tested, these compounds are pre-incubated for 10 minutes at RT before addition of the respective agonist.
as §1, §2

Row | SMILES | pIC50
9 | CC1c2ccccc2CCN1C(=O)c1cc2ccc(Br)cn2n1 (stereo not shown) [drawing 1017, (6-Bromo-pyrazolo[1,5-a]pyridin-2-yl)-(1-methyl-3,4-dihydro-1H-isoquinolin-2-yl)-methanone] | 6.82
10 | CC1c2ccccc2CCN1C(=O)c1cc2ccc(Cl)cn2n1 (stereo not shown) [drawing 1018, (6-Chloro-pyrazolo[1,5-a]pyridin-2-yl)-(1-methyl-3,4-dihydro-1H-isoquinolin-2-yl)-methanone] | 7.35
11 | O=C(c1cc2ccc(Br)cn2n1)N1CCc2ncc(Br)cc2C1 [drawing 1019, (3-Bromo-7,8-dihydro-5H-[1,6]naphthyridin-6-yl)-(6-bromo-pyrazolo[1,5-a]pyridin-2-yl)-methanone] | 6.97
12 | CC1c2ccsc2CCN1C(=O)c1cc2ccc(Br)cn2n1 (stereo not shown) [drawing 1020, (6-Bromo-pyrazolo[1,5-a]pyridin-2-yl)-(4-methyl-6,7-dihydro-4H-thieno[3,2-c]pyridin-5-yl)-methanone] | 7.29
13 | Cc1ccc2n1CCN(C(=O)c1cc3ccc(Br)cn3n1)C2C (stereo not shown) [drawing 1021, 6-bromo-2-[(1,6-dimethyl-3,4-dihydropyrrolo[1,2-a]pyrazin-2(1 H)-yl)carbonyl]pyrazolo[1,5-a]pyridine] | 6.83
14 | CC1c2ccoc2CCN1C(=O)c1cc2ccc(Br)cn2n1 (stereo not shown) [drawing 1022, (6-Bromo-pyrazolo[1,5-a]pyridin-2-yl)-(4-methyl-6,7-dihydro-4H-furo[3,2-c]pyridin-5-yl)-methanone] | 7.37
15 | CN1c2ccccc2CCN1C(=O)c1cc2ccc(Br)cn2n1 [drawing 1023, (6-Bromo-pyrazolo[1,5-a]pyridin-2-yl)-(1-methyl-3,4-dihydro-1H-cinnolin-2-yl)-methanone] | 6.81

Biological target: T3, transmembrane allosteric modulatory sites of mGluR5 receptors (Rattus norvegicus, UniProt P31424)
T3 construct: from tissue; host or cells: rat cerebral cortex membranes (male Sprague-Dawley rats)
T3 sequence (P31424 21-1203): as above
Assay: [3H]-MMPEP binding assay in rat cortical membranes
Conditions: radioligand [3H]-MMPEP, 60 minutes at room temperature, read-out: mGluR5_M_ MPEP_r_CTX_ IC50
Description: Preparation of rat cortical membranes:
The resulting pellet is re-suspended in 20 volumes of distilled water and centrifuged for 20 minutes at 8000 x g. […] All centrifugation steps are carried out at 4°C.
Alternatively, assays are performed with [^3H]-MMPEP (2-(3-methoxyphenylethynyl)-6-methylpyridine hydrochloride) as radioligand. […] Incubations are terminated using a Millipore filter system.

Row | SMILES | pIC50
16 | CC1c2ccccc2CCN1C(=O)c1cc2ccc(Br)cn2n1 (stereo not shown) [drawing 1024, (6-Bromo-pyrazolo[1,5-a]pyridin-2-yl)-(1-methyl-3,4-dihydro-1H-isoquinolin-2-yl)-methanone] | 6.40
17 | CC1c2ccccc2CCN1C(=O)c1cc2ccc(Cl)cn2n1 (stereo not shown) [drawing 1025, (6-Chloro-pyrazolo[1,5-a]pyridin-2-yl)-(1-methyl-3,4-dihydro-1H-isoquinolin-2-yl)-methanone] | 6.59
18 | CC1c2ccoc2CCN1C(=O)c1cc2ccc(Br)cn2n1 (stereo not shown) [drawing 1026, (6-Bromo-pyrazolo[1,5-a]pyridin-2-yl)-(4-methyl-6,7-dihydro-4H-furo[3,2-c]pyridin-5-yl)-methanone] | 6.18
19 | C[C@@H]1c2ccccc2CCN1C(=O)c1cc2c(Cl)cc(Cl)cn2n1 [drawing 1027, (4,6-Dichloro-pyrazolo[1,5-a]pyridin-2-yl)-((R)-1-methyl-3,4-dihydro-1H-isoquinolin-2-yl)-methanone] | 7.37
